Measurements published in PMC3130785, “Small Compound 6-O-Angeloylplenolin Induces Mitotic Arrest and Exhibits Therapeutic Potentials in Multiple Myeloma” (PLoS ONE, 2011).

How the values were obtained:
[1] = test system: MM.1R; test: MTT cell proliferation assay; assay type: cell-based; details: Homo sapiens, 48 h
Description: (§1) U266, RPMI 8226 cells (1×10^4), primary CD138+ cells, PBMCs (5×10^4), and BMSCs (1×10^4) were cultured in 96-well dishes and incubated without or with 6-OAP at indicated concentration for 48 h. MM.1S and MM.1R cells (2×10^4) were seeded into 96-well dishes and pre-cultured for 24 h, then treated with 6-OAP for 48 h. Cell proliferation was determined by MTT assay. Cell viability was estimated by trypan blue dye exclusion.

[2] = test system: U266; test: MTT cell proliferation assay; assay type: cell-based; details: Homo sapiens, U-266, 48 h
Description: as §1

[3] = test system: MM.1S; test: MTT cell proliferation assay; assay type: cell-based; details: Homo sapiens, MM1.S, 48 h
Description: as §1

[4] = test system: RPMI 8226; test: MTT cell proliferation assay; assay type: cell-based; details: Homo sapiens, 48 h
Description: as §1

[5] = test system: pAkt; test: Western blotting, IGF-I stimulation; assay type: cell-based, human; details: MM.1S; 6-OAP 7.5 µM for 12 h; IGF-I 50 ng/ml
Description: (§2) Cell pellets were lysed in RIPA buffer containing 50 mM Tris pH 8.0, 150 mM NaCl, 0.1% SDS, 0.5% deoxycholate, 1% NP-40, 1 mM DTT, 1 mM NaF, 1 mM sodium vanadate, and protease inhibitors cocktail (Sigma). For immunoprecipitations, cells were lysed on ice for 15 minutes in RIPA buffer. Lysates were centrifuged. The supernatant was incubated with indicated antibodies overnight, after which protein A/G Plus beads (Santa Cruz Biotechnology) were added and incubated for 3 h. The beads were washed 4 times in RIPA buffer. Then the beads were resuspended in 1× sample buffer and boiled for 3 min. Protein extracts were quantitated and loaded on 8% to 12% sodium dodecyl sulfate polyacrylamide gel, electrophoresed, and transferred to a nitrocellulose membrane (Whatman). The membrane was incubated with primary antibody, washed, and incubated with horseradish peroxidase (HRP)–conjugated secondary antibody (Pierce). Detection was performed by using a chemiluminescent western detection kit (Cell Signaling). […]
(§3) Figure 5 6-OAP overcomes the protective effects of IL-6, IGF-I and BMSCs on MM cells. […] Cell proliferation was assessed by MTT assay. […] Cell proliferation was assessed by MTT assay. *p<.01,** p<.05. […]

[6] = test system: PDK-1; test: Western blotting, IGF-I stimulation; assay type: cell-based, human; details: MM.1S; IGF-I 50 ng/ml
Description: as §2, §3

[7] = test system: U266, RPMI 8226, MM.1S, and MM.1R cells; test: MTT assay, MM cell lines together; assay type: cell-based; details: Homo sapiens, range over the four MM cell lines
Description: as §1

[8] = test system: Staphylococcus aureus; parameters: method as in PMID 9461679, PMID 8657743, PMID 12521264; details: cited from earlier work

With `CC=C(C)C(=O)OC1C2C(CC(C)C3C=CC(=O)C31C)OC(=O)C2C` (centres unmarked) [6-OAP, 6-O-angeloylplenolin] the IC50 [1] was 9.2 ± 2.1 µM, the IC50 [2] was 8.6 ± 0.5 µM and the IC50 [3] was 6.1 ± 0.4 µM. The IC50 [4] was 3.5 ± 0.3 µM, the “IGF-I-induced pAkt expression” value [5] was “inhibited” and the “phosphorylation of PDK-1” value [6] was “not affected”. The IC50 [7] was 3.5 to 9.2 µM and the antibacterial activity [8] was “exhibit antibacterial activity”.
